Patent US20100222322A1, “Non-Nucleoside Reverse Transcriptase Inhibitors” (MERCK & CO., INC., priority 2005, published 2010)
Like-named read-outs stand apart in the source and are kept apart here.

Assays:
[1] = molecular target: T1, mutant HIV reverse transcriptase with the K103N mutation (Human immunodeficiency virus type 1 group M subtype B, UniProt P04585, K690N); assay: Analogous RT inhibition assay, K103N mutant; format: biochemical
T1 construct: mutations that occur in the reverse transcriptase segment of the pol gene; made in house
Description: (§1) 100 μL reaction mixtures were initiated with a combination of primer-template substrate (10 nM final concentration) and dNTPs (0.6 μM dNTPs, 0.75 μM [^3H]-dGTP). The heterodimeric nucleic acid substrate was generated by annealing the DNA primer pD500 (described in Shaw-Reid et al., J. Biol. Chem., 278: 2777-2780; obtained from Integrated DNA Technologies) to t500, a 500 nucleotide RNA template created by in vitro transcription (see Shaw-Reid et al., J. Biol. Chem., 278: 2777-2780). After 1 hour incubation at 37° C., reactions were quenched by 10 μL streptavidin scintillation proximity assay beads (10 mg/mL, from Amersham Biosciences) in 0.5 M EDTA, pH 8. Microtiter plates were incubated an additional 10 minutes at 37° C. prior to quantification via Topcount (Packard).
(§2) Analogous assays were conducted substituting mutant HIV strains to determine the […] inhibition of compounds of the present invention against mutant HIV reverse transcriptase. In one strain the reverse transcriptase has the Y181C mutation and in the other strain the reverse transcriptase has the K103N mutation. The mutations were generated with the […] site-directed mutagenesis kit (Stratagene). […] The compounds set forth in the other Examples were not tested in the Y181C assay. […] The compounds set forth in the other Examples were not tested in the K103N assay.

[2] = molecular target: T2, mutant HIV reverse transcriptase with the Y181C mutation (Human immunodeficiency virus type 1 group M subtype B, UniProt P04585, Y768C); assay: Analogous RT inhibition assay, Y181C mutant; format: biochemical
T2 construct: mutations that occur in the reverse transcriptase segment of the pol gene; made in house
Description: as §1, §2

[3] = tested on: HIV replication in T-lymphoid cells; assay: Spread assay: inhibition of acute HIV infection of T-lymphoid cells; format: cell-based; conditions: read-out: IC95, spread assay (inhibition of HIV replication)
Description: An assay for the inhibition of acute HIV infection of T-lymphoid cells (alternatively referred to herein as the “spread assay”) was conducted in accordance with Vacca, J. P. et al., Proc. Natl. Acad. Sci. USA 1994, 91: 4096. […] The compounds of Examples 26, 29, 30, 33-35 and 62 were tested in the spread assay up to 10 micromolar, but specific IC95 values were not obtained; i.e., the IC95 values were greater than 10 micromolar. The compounds of Examples 47 and 61 were not tested.

[4] = RT with K103N mutation, tested up to 20 micromolar, read-out: IC50, K103N mutant assay
[5] = RT with Y181C mutation, tested up to 20 micromolar, read-out: IC50, Y181C mutant assay
[6] = Human immunodeficiency virus 1, acute HIV infection of T-lymphoid cells, tested up to 10 micromolar

| Structure (SMILES) | IC50 [1, 4] | IC50 [2, 5] | IC95 [3, 6] | IC50 [1] | IC50 [2] | IC95 ([3]; Human immunodeficiency virus 1, T-lymphoid) |
| --- | --- | --- | --- | --- | --- | --- |
| COC[C@@H]1CCCN1S(=O)(=O)c1c(C(N)=O)[nH]c2ccc(Br)cc12 [Example 15, 5-bromo-3-{[(2S)-2-(methoxymethyl)pyrrolidin-1-yl]sulfonyl}-1H-indole-2-carboxamide] | 1 to 20 µM | < 1000 nM | < 1 µM | – | – | – |
| NC(=O)c1[nH]c2ccc(Cl)cc2c1S(=O)(=O)N1CC=CC1 [Example 37, 5-chloro-3-(2,5-dihydro-1H-pyrrol-1-ylsulfonyl)-1H-indole-2-carboxamide] | – | < 1000 nM | < 1 µM | 1 to 20 µM | – | – |
| NC(=O)c1[nH]c2ccc(Br)cc2c1S(=O)(=O)N1CCCC(F)(F)C1 [Example 21, 5-bromo-3-[(3,3-difluoropiperidin-1-yl)sulfonyl]-1H-indole-2-carboxamide] | – | – | < 1 µM | > 20 µM | < 1000 nM | – |
| NC(=O)c1[nH]c2ccc(Cl)cc2c1S(=O)(=O)N1CCC(F)(F)C1 [Example 39, 5-chloro-3-[(3,3-difluoropyrrolidin-1-yl)sulfonyl]-1H-indole-2-carboxamide] | – | < 1000 nM | < 1 µM | – | – | – |
| NC(=O)c1[nH]c2ccc(Br)cc2c1S(=O)(=O)NCC1CCCO1 (stereo not shown) [Example 18, 5-bromo-3-{[(tetrahydrofuran-2-ylmethyl)amino]sulfonyl}-1H-indole-2-carboxamide] | > 20 µM | < 1000 nM | < 1 µM | – | – | – |
| O=C(NCc1cncs1)c1[nH]c2ccc(Br)cc2c1S(=O)(=O)N1CCCC1 [Example 65, 5-bromo-3-(pyrrolidin-1-ylsulfonyl)-N-(1,3-thiazol-5-ylmethyl)-1H-indole-2-carboxamide] | – | – | < 1 µM | < 1 µM | < 1000 nM | – |
| NC(=O)c1[nH]c2ccc(Br)cc2c1S(=O)(=O)N1CCC[C@H]1C(F)(F)F [Example 19, 5-bromo-3-{[(2S)-2-(trifluoromethyl)pyrrolidin-1-yl]sulfonyl}-1H-indole-2-carboxamide] | > 20 µM | – | < 1 µM | – | 1000 to 20000 nM | – |
| CN(C1CC1)S(=O)(=O)c1c(C(N)=O)[nH]c2ccc(Br)cc12 [Example 8, 5-bromo-3-{[cyclopropyl(methyl)amino]sulfonyl}-1H-indole-2-carboxamide] | – | – | < 1 µM | > 20 µM | 1000 to 20000 nM | – |
| NC(=O)c1[nH]c2ccc(Cl)cc2c1S(=O)(=O)N1CCCCC1 [Example 5, 5-chloro-3-(piperidin-1-ylsulfonyl)-1H-indole-2-carboxamide] | – | < 1000 nM | < 1 µM | > 20 µM | – | – |
| O=C(NCc1ccn[nH]1)c1[nH]c2ccc(Br)cc2c1S(=O)(=O)N1CCCC1 [Example 59, 5-bromo-N-(1H-pyrazol-5-ylmethyl)-3-(pyrrolidin-1-ylsulfonyl)-1H-indole-2-carboxamide] | – | – | < 1 µM | < 1 µM | < 1000 nM | – |
| O=C(NCc1c(F)cccc1Cl)c1[nH]c2ccc(Br)cc2c1S(=O)(=O)N1CCCC1 [Example 48, 5-bromo-N-(2-chloro-6-fluorobenzyl)-3-(pyrrolidin-1-ylsulfonyl)-1H-indole-2-carboxamide] | – | – | < 1 µM | < 1 µM | < 1000 nM | – |
| NC(=O)c1[nH]c2ccc(Br)cc2c1S(=O)(=O)NCCS(N)(=O)=O [Example 9, 3-({[2-(aminosulfonyl)ethyl]amino}sulfonyl)-5-bromo-1H-indole-2-carboxamide] | – | – | < 1 µM | 1 to 20 µM | 1000 to 20000 nM | – |
| NC(=O)c1[nH]c2ccc(Cl)cc2c1S(=O)(=O)N1CCC(F)C1 (stereo not shown) [Example 38, 5-chloro-3-[(3-fluoropyrrolidin-1-yl)sulfonyl]-1H-indole-2-carboxamide] | – | < 1000 nM | < 1 µM | 1 to 20 µM | – | – |
| NC(=O)c1[nH]c2ccc(Br)cc2c1S(=O)(=O)N1CC=CC1 [Example 10, 5-bromo-3-(2,5-dihydro-1H-pyrrol-1-ylsulfonyl)-1H-indole-2-carboxamide] | – | – | < 1 µM | < 1 µM | < 1000 nM | – |
| NC(=O)c1[nH]c2ccc(Br)cc2c1S(=O)(=O)NC1CCCC1 [Example 17, 5-bromo-3-[(cyclopentylamino)sulfonyl]-1H-indole-2-carboxamide] | > 20 µM | < 1000 nM | < 1 µM | – | – | – |
| NC(=O)c1[nH]c2ccc(Br)cc2c1S(=O)(=O)N1CCCC1 [Example 1, 5-Bromo-3-(pyrrolidin-1-ylsulfonyl)-1H-indole-2-carboxamide] | 1 to 20 µM | < 1000 nM | < 1 µM | – | – | – |
| NC(=O)c1[nH]c2ccc(Br)cc2c1S(=O)(=O)NC1CC1 [Example 11, 5-bromo-3-[(cyclopropylamino)sulfonyl]-1H-indole-2-carboxamide] | – | – | < 1 µM | > 20 µM | 1000 to 20000 nM | – |
| NC(=O)c1[nH]c2ccc(Cl)cc2c1S(=O)(=O)N1CCCC1 [Example 6, 5-chloro-3-(pyrrolidin-1-ylsulfonyl)-1H-indole-2-carboxamide] | – | < 1000 nM | < 1 µM | 1 to 20 µM | – | – |
| NC(=O)c1[nH]c2ccc(Br)cc2c1S(=O)(=O)NC1CCCCC1 [Example 16, 5-bromo-3-[(cyclohexylamino)sulfonyl]-1H-indole-2-carboxamide] | > 20 µM | < 1000 nM | < 1 µM | – | – | – |
| O=C(NCc1ccncc1)c1[nH]c2ccc(Br)cc2c1S(=O)(=O)N1CCCC1 [Example 64, 5-bromo-N-(pyridin-4-ylmethyl)-3-(pyrrolidin-1-ylsulfonyl)-1H-indole-2-carboxamide] | – | – | < 1 µM | < 1 µM | < 1000 nM | – |
| O=C(NCCO)c1[nH]c2ccc(Br)cc2c1S(=O)(=O)N1CCCC1 [Example 32, 5-bromo-N-(2-hydroxyethyl)-3-(pyrrolidin-1-ylsulfonyl)-1H-indole-2-carboxamide] | – | – | – | 1 to 20 µM | < 1000 nM | < 1 µM |
| O=C(NCc1ccccc1OC(F)F)c1[nH]c2ccc(Br)cc2c1S(=O)(=O)N1CCCC1 [Example 53, 5-bromo-N-[2-(difluoromethoxy)benzyl]-3-(pyrrolidin-1-ylsulfonyl)-1H-indole-2-carboxamide] | – | – | < 1 µM | < 1 µM | < 1000 nM | – |
| NC(=O)c1[nH]c2ccc(Cl)cc2c1S(=O)(=O)NC1CCCC1 [Example 4, 5-chloro-3-[(cyclopentylamino)sulfonyl]-1H-indole-2-carboxamide] | – | < 1000 nM | < 1 µM | > 20 µM | – | – |
| CON(C)S(=O)(=O)c1c(C(N)=O)[nH]c2ccc(Br)cc12 [Example 12, 5-bromo-3-{[methoxy(methyl)amino]sulfonyl}-1H-indole-2-carboxamide] | – | – | < 1 µM | > 20 µM | > 20000 nM | – |
| O=C(NCc1ccccc1O)c1[nH]c2ccc(Br)cc2c1S(=O)(=O)N1CCCC1 [Example 51, 5-bromo-N-(2-hydroxybenzyl)-3-(pyrrolidin-1-ylsulfonyl)-1H-indole-2-carboxamide] | – | – | < 1 µM | < 1 µM | < 1000 nM | – |
| O=C(NCc1nccs1)c1[nH]c2ccc(Br)cc2c1S(=O)(=O)N1CCCC1 [Example 47, 5-Bromo-3-(pyrrolidin-1-ylsulfonyl)-N-(1,3-thiazol-2-ylmethyl)-1H-indole-2-carboxamide] | < 1 µM | < 1000 nM | – | – | – | – |
